In patent US20080199423A1, “Methods of Using Apo2l Receptor Agonists and Ink Cell Activators” (GENENTECH, INC., priority 2004, published 2008):
Entries after “also recorded” stand apart in the source; their conditions may differ. The star is where a group is joined. Cbz = O=C(OCc1ccccc1)*; CH2F = FC*

Key:
4T1 cells [1] = assay: Lysis of 4T1 cells by activated NK cells treated with inhibitors; assay type: cell-based, mouse; conditions: E/T ratio 25 to 1
Description: (§1) The cytolytic activity of resting and activated NK cells was evaluated against 4T1 target cells. The activated NK cells were treated with inhibitors of Perforin maturation (concanamycin A), GraB (Z-AAD-FMK), PI3K (wortmannin), MEK1 kinase (PD98059), S6 kinase (rapamycin) and JNK (SP) to assess the role of cytotoxic granules. The E/T ratio was 25 to 1, and results shown are from one representative donor (out of three donors). […] 4T1 target cells were treated with Apo2L/TRAIL protein (100 ng/ml) or with activated NK cells (“Act NK”) for 30 minutes, 1 hour or 4 hours. The E/T ratio was 10:1. Extracts of the 4T1 cells were analysed by SDS-PAGE and immunoblot analysis for pro-caspase-3, cleaved caspase-3 and cleaved PARP.
For the cytotoxicity assays, target cells were labeled with 100 mCi ^51Cr for 1 hour at 37° C. and then washed 3 times before use. […] The cytotoxicity assays were performed in round bottom 96 well plates and the percent specific lysis was calculated as 100× (experimental cpm-spontaneous cpm)/(total cpm-spontaneous cpm). The role of Apo2L/TRAIL expressed by NK cells in the lysis of target cells was evaluated using anti-Apo2L/TRAIL mAbs (5C2 and 1D1, Genentech, Inc.). […]

4T1 cells [2] = assay: Clonogenic potential of 4T1 cells; assay type: cell-based, mouse
Description: Since both cell surface Apo2L/TRAIL and perforin granules are essential for lysis of 4T1 cells, assays were conducted to examine if resting NK cells could be “armed” by the addition of soluble Apo-2L/TRAIL protein. There is precedence for membrane bound and soluble forms of TNF family members to display differential behavior upon application to the target cell. With the aim of corroborating the ^51Cr release assays, the clonogenic potential of 4T1 cells was evaluated by treatment with soluble Apo2L/TRAIL and resting NK cells.

HCT116 cells = assay: 51Cr release cytotoxicity assay on HCT116 target cells; assay type: cell-based
Description: (§2) Purified NK cells were treated with poly(I:C) or R-848 and incubated with B16BL10 melanoma cells (ATCC) at the indicated ratios. Purified NK cells stimulated with R-848 were incubated with HCT116 target cells (ATCC) at the indicated ratios. The role of Apo2L/TRAIL in lysis assays in panels B and C was determined by preincubation with neutralizing (5C2) and non-neutralizing (1D1) anti-Apo2L/TRAIL mAbs. The data has been confirmed with NK cells from at least 3 donors and less that 5% SD was observed.
(§3) For the cytotoxicity assays, target cells were labeled with 100 mCi ^51Cr for 1 hour at 37° C. and then washed 3 times before use. 10^4 target cells were added to varying numbers of effector cells at the indicated ratios and incubated in duplicate wells for 4 hours at 37° C., 5% CO2, and supernatants were used to determine ^51Cr released using a Gamma counter. The cytotoxicity assays were performed in round bottom 96 well plates and the percent specific lysis was calculated as 100× (experimental cpm-spontaneous cpm)/(total cpm-spontaneous cpm). The role of Apo2L/TRAIL expressed by NK cells in the lysis of target cells was evaluated using anti-Apo2L/TRAIL mAbs (5C2 and 1D1, Genentech, Inc.). Isotype control antibodies were obtained from BD Biosciences.

C57MG = assay: 51Cr release cytotoxicity assay on C57MG cells; assay type: cell-based, mouse
B16BL10 melanoma cells = assay: 51Cr release cytotoxicity assay on B16 melanoma target cells; assay type: cell-based, mouse
Description: as §2, §3

[3] = tested on: caspase-3 and PARP cleavage in 4T1 cells; assay: Immunoblot for caspase-3 and PARP cleavage in 4T1 cells; assay type: cell-based, mouse
Description: as §1
4T1 cells were treated with Apo2L/TRAIL, resting NK cells (“NK”) or activated NK cells (“Act NK”) separately or in combination. The lysates were analyzed for cleavage of PARP, an indicator of caspase-3 activation. NK cells from multiple donors were utilized and results from one representative donor are shown. […]
Total cell extracts were prepared from 4T1 cells using lysis buffer (0.1 M Tris pH 8.0, 500 mM NaCl, 2 mM EDTA, […], 10% glycerol, supplemented with Complete Protease Inhibitor Cocktail, Roche), and the lysates were clarified by centrifugation at 16,000 rpm for 10 minutes at 4° C. […] Immune complexes were detected using enhanced chemiluminesence (Amersham).

SKMES-1 cells = assay: 51Cr release by SKMES-1 cells incubated with soluble Apo2L/TRAIL; assay type: cell-based; conditions: range of concentrations, 4 hours
Description: The role of Apo2L/TRAIL was evaluated by preincubation of NK cells with either a neutralizing (5C2) or non-neutralizing (1D1) mAb. The % lysis was plotted, and the results are representative of 3 experiments (less than 5% SD was observed). […] The supernatants were then assessed for Cr release. Similar cytolysis results were obtained in at least 3 experiments.
as §3

4T1 cells [4] = assay: 51Cr release cytotoxicity assay, purified human NK cells on 4T1 target cells; assay type: cell-based, mouse; conditions: for Lysis of 4T1 cells by NK cells treated with TLR activating agent: NK cells treated for 18 hours with agent, 4 hour incubation, E:T 1:1 to 50:1
Description: 4T1 cells (a metastatic mammary carcinoma cell line derived from BALE/C mice, obtained from Fred Miller, Karmanos Cancer Institute) were assayed in an in vitro cytotoxicity assay to examine tumoricical effects of various Toll receptor (“TLR”) activators and NK cells. The 4T1 target cells were cultured in IDMEM medium supplemented with 10% FCS, glutamine and penicillin/streptomycin, labeled with 100 mCi ^51Cr for 1 hour at 37° C. and then washed three times with culture medium.
To prepare purified effector NK cells for the assay, PBMCs from healthy human donors were isolated by standard density-gradient centrifugation over Ficoll-Paque Plus (Pharmacia). CD3 positive cells were first depleted using anti-CD3 microbeads (obtained from Miltenyi), and then the NK cells were purified using anti-CD56 microbeads (Miltenyi). The purity of the NK cell preparation was 95% or higher as determined by staining with mouse anti-human CD56 PE and mouse anti-human CD14 PE conjugates (BD Biosciences). The isolated cells were cultured in RPMI 1640 supplemented with heat inactivated 10% FCS, penicillin, streptomycin, 10 mM sodium pyruvate, 2 mM L-glutamine and 10 mM HEPES.
10^4 of the labeled 4T1 cells were added to varying numbers of purified NK cells (either untreated control NK cells or NK cells treated with specific agent) at ratios of 1:1, 3:1, 6:1, 12:1, 25:1, and 50:1, respectively. NK cells were treated for 18 hours with one of the following TLR activating agents: sBLP (1 μg/ml, Bachem); poly(I:C) (50 μg/ml, Pharmacia); E. coli 055:B5 LPS (phenol extracted, 1 μg/ml, Sigma); Flagellin (1 μg/ml, A. Gewirtz, Emory Univerity); R-848 (5 μg/ml, Invivogen); CpG oligonucleotides (2006 and 2216, 5 μM, Invivogen). The cytotoxicity assays were performed in round bottom 96 well plates, and the samples were incubated in duplicate wells for 4 hours at 37° C., 5% CO2. RPMI 1640 supplemented with heat inactivated 10% FCS, penicillin, streptomycin, 10 mM sodium pyruvate, 2 mM L-glutamine and 10 mM HEPES was used during incubation.
After the 4 hour incubation, supernatants were aspirated from the wells and examined for ^51Cr release using a Gamma counter. The percent specific lysis was calculated as 100× (experimental cpm-spontaneous cpm)/(total cpm-spontaneous cpm). The data are representative of at least three experiments and <5% SD was observed.
A cytotoxicity assay was performed as described in Example 1, except for the following modifications. Purified NK cells were treated with poly(I:C) or R-848 overnight and incubated with 4T1 cells. The role of TNF-alpha, FasL, and Apo2L/TRAIL was evaluated by preincubation of the NK cells with neutralizing antibodies to the respective ligands. The following neutralizing antibodies were added at final concentration of 2 μg/ml: anti-Fas-L (mIgG2b, R&D Systems), anti-TNF-alpha (mIgG1, Genentech), and anti-Apo2L/TRAIL (5C2, mIgG2a, ATCC HB-12258 and 1D1, mIgG2b; ATCC HB-12257). Isotype control antibodies were obtained from BD Biosciences.
as §3

[5] = tested on: Apo2L/TRAIL mRNA in NK cells; assay: RT-QPCR of Apo2L/TRAIL message in treated NK cells; assay type: cell-based, human
Description: In another experiment, the purified NK cells were treated for 18 hours in RPMI 1640 supplemented with heat inactivated 10% FCS, penicillin, streptomycin, 10 mM sodium pyruvate, 2 mM L-glutamine and 10 mM HEPES with poly(I:C) (50 μg/ml), R-848 (5 μg/ml) or hIFN-alpha (1000 U/ml, Sigma) in the presence or absence of 10 μg/ml cycloheximide and Apo2L/TRAIL was measured in the extracted RNA. RT-PCR was performed and the amount of cDNA was quantitated by RT-QPCR analysis, normalized to RPL19, and fold induction over control is shown in FIG. 2A. Primers were designed as per instructions (Primer Express) and sequences are: hRPL19-probe: […] (SEQ ID NO:7); hRPL19-For: […] (SEQ ID NO:8); hRPL19-Rev: […] (SEQ ID NO:9); hApo2L-probe: […] (SEQ ID NO:10); hApo2L-For: […] (SEQ ID NO:11); hApo2L-Rev: […] (SEQ ID NO:12). cDNA was analyzed for expression of RPL19 and Apo2L/TRAIL by RT-QPCR (Applied Biosystems) as described in Zarember et al., J. Immunol., 168(2):554-61 (2002). Fold increase values are expressed as arbitrary units, relative to the calibrator gene RPL19.

[6] = tested on: cell surface Apo2L/TRAIL on NK cells; assay: Flow cytometry of cell surface Apo2L/TRAIL on purified NK cells; assay type: cell-based, human; conditions: 5C2-Alexa 488 staining
Description: Cell surface Apo2L/TRAIL on purified NK cells treated with poly(I:C), R-848 or hIL-2 (30 ng/ml, BD Biosciences) was also analyzed by cytometry. Isotype control (IgG2a, Sigma) and anti-Apo2L/TRAIL antibody (5C2) were labeled with Alexa 488 (Molecular Probes). 5×10^5 cells were incubated with 2 μg of human IgG to block FcRs and 1 μg of the directly labeled mAbs at 4° C. for 45 minutes, followed by 2 washes. Stained cells were analyzed using a FACScan cytometer (Becton Dickenson) and Cellquest software.

C/C=C/[C@H]1O[C@@](O)([C@@H](C)[C@H](O)[C@H](C)[C@H]2OC(=O)/C(OC)=C/C(C)=C/[C@@H](C)[C@@H](O)[C@@H](CC)[C@@H](O)[C@H](C)C/C(C)=C/C=C/[C@@H]2OC)C[C@@H](O[C@H]2C[C@@H](O)[C@H](OC(N)=O)[C@@H](C)O2)[C@@H]1C [Concanamycin A]
Effect of inhibitor treatment of activated NK cells on lysis of 4T1 cells (4T1 cells [1]): blocked the cytotoxic activity

Apo2L/TRAIL: recombinant Apo2L/TRAIL (amino acids 114-281), prepared as in Ashkenazi et al. 1999
Clones of 4T1 cells, simultaneous soluble Apo2L/TRAIL and resting NK cells (4T1 cells [2]; NK cells at ratio 25 to 1, after 5 days): dramatic reduction in clones
Clonogenic capacity of 4T1 cells, soluble Apo2L/TRAIL alone (4T1 cells [2]; individual treatment): not affected in terms of clonogenic capacity
Cytotoxic effect on HCT116 cells, Apo2L/TRAIL with limiting ratios of resting NK cells (HCT116 cells; 5 ng/ml Apo2L/TRAIL plus resting NK cells): enhanced cytotoxic effect
Lysis of HCT116 cells by Apo2L/TRAIL alone (HCT116 cells; 5 ng/ml Apo2L/TRAIL, no NK cells): no lysis
51Cr release by HCT-116 cells, Apo2L/TRAIL alone (HCT116 cells; range of concentrations, 4 hours): effectively mediated release
Lysis of C57MG cells, Apo2L/TRAIL added to activated NK cells (C57MG; plus activated NK cells): no significant increase
Lysis of C57MG cells, Apo2L/TRAIL added to resting NK cells (C57MG; plus resting NK cells): increased the lysis observed
Lysis of B16BL10 cells, Apo2L/TRAIL added to activated NK cells (B16BL10 melanoma cells; plus activated NK cells): no significant increase
Lysis of B16BL10 cells, Apo2L/TRAIL added to resting NK cells (B16BL10 melanoma cells; plus resting NK cells): increased the lysis observed
Apoptotic effect of Apo2L/TRAIL protein alone on B16 cells (B16BL10 melanoma cells; range of concentrations, no NK cells): certain resistance
Cleavage of pro-caspase-3 and PARP in 4T1 cells, Apo2L/TRAIL alone ([3]; 100 ng/ml, 30 minutes, 1 hour or 4 hours): did not result in cleavage
PARP cleavage in 4T1 cells, resting NK cells along with soluble Apo2L/TRAIL ([3]; combined treatment): production of cleaved PARP
51Cr release by SKMES-1 cells, Apo2L/TRAIL alone (SKMES-1 cells): effectively mediated release
Lysis of 4T1 cells, Apo2L/TRAIL with resting NK cells (4T1 cells [4]; increasing concentrations of Apo2L/TRAIL plus resting NK cells): dose dependent lysis
Lysis of 4T1 cells, Apo2L/TRAIL added to activated NK cells (4T1 cells [4]; plus activated NK cells): Some increase
Lysis of 4T1 cells by Apo2L/TRAIL protein alone (4T1 cells [4]; range of concentrations, up to 2 μg/ml, no NK cells): resistant to lysis; also recorded: certain resistance

Cbz-Ala-Ala-Asp-CH2F [GraB inhibitor]
Effect of inhibitor treatment of activated NK cells on lysis of 4T1 cells (4T1 cells [1]): reduction in lysis

C[C@@H]1C[C@@H]([C@H](O)CC2CC(=O)NC(=O)C2)C(=O)[C@@H](C)C1 [cycloheximide]
Effect of protein synthesis inhibitor on induction of Apo2L/TRAIL message in stimulated NK cells ([5]; 10 μg/ml cycloheximide, poly(I:C), R-848 or IFN-alpha stimulated): not blocked

CCOCc1nc2c(N)nc3ccccc3c2n1CC(C)(C)O [R-848]
Cytotoxicity of stimulated NK cells towards HCT116 cells (HCT116 cells; NK cells stimulated with agent): increased cytoxicity
Killing of B16 melanoma cells by stimulated NK cells (B16BL10 melanoma cells; NK cells stimulated with agent): efficiently killed
Increase of Apo2L/TRAIL mRNA over control ([5]; NK cells treated 18 hours, normalized to RPL19): 25 fold
Cell surface expression of Apo2L/TRAIL on NK cells [6]: detectable cell surface expression
Lysis of 4T1 cells by NK cells treated with TLR activating agent (4T1 cells [4]): efficiently killed

Flagellin
Lysis of 4T1 cells by NK cells treated with TLR activating agent (4T1 cells [4]): neither BLP, LPS, Flagellin, nor the CpG oligonucleotides induced cytotoxic activity
